Experimental data reported in patent US20130345215A1, “PYRAZOLOPYRIMIDONE AND PYRAZOLOPYRIDONE INHIBITORS OF TANKYRASE” (Genentech, Inc., priority 2012, published 2013).

target: T1, tankyrase 2 (TNKS2) (Homo sapiens, UniProt Q9H2K2); assay: μHTS-TNKS-IWR2 TR-FRET Binding Assay (Example 118), His6-TNKS2 substituted; conditions: procedure in Example 118 with His6-TNKS2
T1 construct: His6-tankyrase 2 (construct: 934-1166) (His6-TNKS2)
Description: (§1) μHTS-TNKS-IWR2 TR-FRET Binding Assay (10 μL/well in BD1536-well plate, a single point)
(§2) Reagents and Stock Solutions
Tankyrase 1 (TNKS1): 184.3 μM=5.2 mg/mL His6-TNKS1, MW=28.2 KDa (construct: 1088-1327, 1266M) in 20 mM Tris pH 8, 150 mM NaCl, 10% glycerol, and 0.5 mM TCEP. Alternatively, His6-tankyrase 2 (construct: 934-1166) (His6-TNKS2) or His6-PARP1 (full length) can be substituted for His6-TNKS 1.
(§3) Biotin-4-((1S,2R,6S,7R)-3,5-Dioxo-4-aza-tricyclo[5.2.1.0*2,6]dec-8-en-4-yl)-N-(4-methyl-quinolin-8-yl)-benzamide (Biotin-IWR2): 10 mM Biotin-IWR2 stock in DMSO, stored at −20° C.
Positive control: 10 mM 2-(4-Trifluoromethyl-phenyl)-3,5,7,8-tetrahydro-thiopyrano[4,3-d]pyrimidin-4-one (XAV939) in DMSO, stored at −20° C.
APC-anti-His Ab: 8.50 μM SL-APC, 8.26 μM anti-6His antibody-SureLight APC (Columia Bioscience, Catalog Number D3-1711, Lot Number N01010-AAH04)
Assay plate: BD 1536-well, clear/black plate (Catalog Number 353255)
(§4) Assay buffer 1a (AB1a) for TNKS dilution: 50 mM Tris, pH 7.4, 100 mM sodium chloride solution, 1 mM magnesium chloride solution, 1 mM DL-dithiothreitol solution, 0.2 mg/mL bovine serum albumin solution, 0.025% NP-40.
(§5) Assay buffer 1b (AB1b) for Biotin-IWR2 dilution: 50 mM Tris, pH 7.4, 100 mM sodium chloride solution, 1 mM magnesium chloride solution, 1 mM DL-dithiothreitol solution, 0.2 mg/mL bovine serum albumin solution, 0.05% NP-40
(§6) Assay buffer 1c (AB1c) for compound dilution: 50 mM Tris, pH 7.4, 100 mM sodium chloride solution, 1 mM magnesium chloride solution, 1 mM DL-dithiothreitol solution, 0.2 mg/mL bovine serum albumin solution
(§7) Assay buffer 2 (AB2) for Eu/APC: 50 mM Tris, pH 7.4, 100 mM sodium chloride solution, 1 mM magnesium chloride solution, 0.2 mg/mL bovine serum albumin solution
(§8) Reagent Stock Solution Preparation
Prepare Biotinylated IWR2 stock solution (3.33× stock) for TOTL and compound wells: 200 nM Biotin-IWR2 in 5% DMSO/AB1b buffer
(§9) Prepare BLANK well stock solution: 5% DMSO/AB1b buffer
Prepare POSITIVE CONTROL well stock solution (3.33× stock): 200 nM XAV939 in 200 nM Biotin-IWR2/5% DMSO/AB1b buffer
(§10) Prepare TNKS 1 stock solution (5× stock): 300 nM TNKS in AB1a buffer. (Alternatively, use TNKS2 or PARP1 stock solutions.)
Prepare Eu/APC stock solution (5× stock): 3.5 nM Eu-SA/50 nM APC-His6Ab in AB2 buffer.
Add 25 μL/well 1.5% DMSO/AB1c buffer in each compound well to the compound concentration at 74 μM in 8.8% DMSO/AB1c buffer or in the 2 μL DMSO CONTROL wells (BLANK, TOTAL and POSITIVE wells) in the compound plate. Transfer 3 μL/well of above solution (solution 1,2,3) to an empty assay plate (BD1536-well plate) as follows: • TOTAL and cpd wells: Solution 1 (Biotin-IWR2): • BLANK wells: Solution 2 (No Biotin-IWR2): • POSITIVE CONTROL wells: Solution 3 (Biotin-IWR2+XAV939)
(§11) Transfer 3 μL/well of the above diluted compound solutions or compound dilution buffer to the above assay plate. Add 2 μL/well of 300 nM TNKS stock solution (4) to every well in the above assay plate. Centrifuge the assay plate at 2100 rpm for 2 min. Incubate the assay plate at 26° C. for 30 minutes. Add 2 μL/well 3.5 nMEu/50 nM APC solution (5) to every well in the above assay plate. Centrifuge the assay plate at 2100 rpm for 2 min. Incubate the assay plate at 26° C. for 60 min. Read the assay plate immediately at excitation wavelength of 330 nm and emission wavelength of 615 and 665 nM in time resolved fluorescence mode.
XAV939 (+ve control): 60 nM at ˜70% Inhibition
General Library compounds: 22.23 μM in 4% DMSO

T1 sequence (Q9H2K2 934-1166): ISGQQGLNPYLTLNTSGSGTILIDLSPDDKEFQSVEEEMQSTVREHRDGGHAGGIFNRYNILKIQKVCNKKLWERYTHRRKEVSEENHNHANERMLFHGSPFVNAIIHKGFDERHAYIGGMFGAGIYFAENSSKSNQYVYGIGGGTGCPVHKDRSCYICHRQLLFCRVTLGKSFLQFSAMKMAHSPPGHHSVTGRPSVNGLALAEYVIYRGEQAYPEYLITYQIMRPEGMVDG

Cn1ncc2c(=O)[nH]c(N3CCN(c4cc(O)cc(F)c4F)CC3)nc21 [Compound I-57, 6-[4-(2 3-difluoro-5-hydroxy-phenyl)piperazin-1-yl]-1-methyl-5H-pyrazolo[3 4-d]pyrimidin-4-one] and COCCOc1cc(F)c(F)c(N2CCN(c3nc4c(cnn4C)c(=O)[nH]3)CC2)c1 [Compound I-58] are within 1.5-fold of each other in IC50: 56.4 nM for the first, 47.1 nM for the second.

First: Cn1ncc2c(=O)[nH]c(N3CCC(C#N)(c4ccc(F)cc4)CC3)nc21 [Compound I-33, 4-(4-fluorophenyl)-1-(1-methyl-4-oxo-5H-pyrazolo[3 4-d]pyrimidin-6-yl)piperidine-4-carbonitrile]
Second: COCCOc1ccc(N2CCN(c3nc4c(cnn4C)c(=O)[nH]3)CC2)c(F)c1 [Compound I-30, 6-[4-[2-fluoro-4-(2-methoxyethoxy)phenyl]piperazin-1-yl]-1-methyl-5H-pyrazolo[3 4-d]pyrimidin-4-one]
The IC50 of the first is 11-fold lower: 21.7 nM for the first, 234 nM for the second. The first is the more potent here.

target: T2, Tankyrase 1 (TNKS1) (Homo sapiens, UniProt O95271); assay: μHTS-TNKS-IWR2 TR-FRET Binding Assay (Example 118), His6-TNKS1; conditions: not given
T2 construct: His6-TNKS1, MW=28.2 KDa (construct: 1088-1327, 1266M)
Description: as §1, §2, §3
(XAV939) in DMSO, stored at −20° C.
as §4, §5, §6, §7, §8, §9, §10
Transfer 3 μL/well of above solution (solution 1,2,3) to an empty assay plate (BD1536-well plate) as follows: • TOTAL and cpd wells: Solution 1 (Biotin-IWR2): • BLANK wells: Solution 2 (No Biotin-IWR2): • POSITIVE CONTROL wells: Solution 3 (Biotin-IWR2+XAV939)
as §11, with “min.” for “min. Read the assay plate immediately at excitation wavelength of 330 nm and emission wavelength of 615 and 665 nM in time resolved fluorescence mode.”

T2 sequence (O95271 1088-1327): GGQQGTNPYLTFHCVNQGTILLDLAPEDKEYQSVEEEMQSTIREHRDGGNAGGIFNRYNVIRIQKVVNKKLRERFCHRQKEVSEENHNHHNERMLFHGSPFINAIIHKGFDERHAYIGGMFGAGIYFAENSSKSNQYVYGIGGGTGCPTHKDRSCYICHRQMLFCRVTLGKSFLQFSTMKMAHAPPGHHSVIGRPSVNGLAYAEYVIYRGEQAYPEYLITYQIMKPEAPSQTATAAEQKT

Going from Cn1ncc2c(=O)[nH]c(N3CCN(c4cc(O)cc(F)c4F)CC3)nc21 [Compound I-57, 6-[4-(2 3-difluoro-5-hydroxy-phenyl)piperazin-1-yl]-1-methyl-5H-pyrazolo[3 4-d]pyrimidin-4-one] to COCCOc1ccc(N2CCN(c3nc4c(cnn4C)c(=O)[nH]3)CC2)c(F)c1 [Compound I-30, 6-[4-[2-fluoro-4-(2-methoxyethoxy)phenyl]piperazin-1-yl]-1-methyl-5H-pyrazolo[3 4-d]pyrimidin-4-one], the IC50 falls from 66 nM to 13 nM (5.1-fold). The second is the more potent here.

Cn1ncc2c(=O)[nH]c(N3CCC(C#N)(c4ccc(F)cc4)CC3)nc21 [Compound I-33, 4-(4-fluorophenyl)-1-(1-methyl-4-oxo-5H-pyrazolo[3 4-d]pyrimidin-6-yl)piperidine-4-carbonitrile] showed an IC50 of 32 nM.

tested on: Wnt stimulated TCF transcriptional activity, HEK293-TS 112 TCF reporter cell line; assay: Tankyrase 1 Assay (Example 119): Wnt3A-stimulated TOPbrite TCF luciferase reporter; type: cell-based; conditions: Compounds I-59 to I-144, procedure in Example 119 (0.5 ug/mL Wnt3A, 16 hours); read-out: TNKS1 (IC50)
Description: Inhibition of the Wnt stimulated TCF transcriptional activity by tankyrase inhibitors was determined utilizing a HEK293-TS 112 TCF reporter cell line. A Wnt-responsive luciferase reporter named TOPbrite was constructed by cloning the enhancer element of Super8xTOPFlash containing eight TCF/LEF binding sites into the pGL4.28 vector (Promega) upstream of the minimal promoter element, and selecting for hygromycin B resistance (50 μg/ml). Cells were seeded into 384-well plates in the presence of 0.5 ug/mL of Wnt3A at a density of 20,000 cells per well in 25 ul of F:12 DMEM media supplemented with 10% FBS and 2 mM Glutamax. Cells seeded without the addition of Wnt3A were used as background signal. Compounds of various concentrations were added to cells and incubated at 37 degrees with 5% CO2 for 16 hours. The assay was terminated with the addition of Promega Dual Glo kit per manufacturer's instructions. A ratio of TOPbrite Firefly Luciferase and SV40 Renillla Luciferase was calculated and the background from the neutral wells was subtracted yielding the final normalized measurement of TCF transcriptional activity. Compound IC50s were determined by four-parameter curve fitting using GeneData software.

Compared with Cn1ncc2c(=O)[nH]c(N3CCC(c4n[nH]c5ncccc45)CC3)nc21 [Compound I-97, 1-methyl-6-[4-(1H-pyrazolo[3 4-b]pyridin-3-yl)-1-piperidyl]-5H-pyrazolo[3 4-d]pyrimidin-4-one], COC(C)c1cc(F)c(N2CCN(c3nc4c(cnn4C)c(=O)[nH]3)CC2)c(F)c1 (stereo not drawn) [Compound I-71, 6-[4-[2 6-difluoro-4-(1-methoxyethyl)phenyl]piperazin-1-yl]-1-methyl-5H-pyrazolo[3 4-d]pyrimidin-4-one] is 3.8-fold lower in IC50: 31.9 nM for the first, 8.3 nM for the second. The second is the more potent here.

Going from Cn1ncc2c(=O)[nH]c(N3CCC(c4nc(-c5cnccn5)no4)CC3)nc21 [Compound I-106, 1-methyl-6-[4-(3-pyrazin-2-yl-1 2 4-oxadiazol-5-yl)-1-piperidyl]-5H-pyrazolo[3 4-d]pyrimidin-4-one] to Cn1ncc2c(=O)[nH]c(N3CCN(c4c(F)cc(OC5CCOCC5)cc4F)CC3)nc21 [Compound I-76, 6-[4-(2 6-difluoro-4-tetrahydropyran-4-yloxy-phenyl)piperazin-1-yl]-1-methyl-5H-pyrazolo[3 4-d]pyrimidin-4-one], the IC50 falls from 64.1 nM to 11.1 nM (5.8-fold).

Cn1ncc2c(=O)[nH]c(N3CCC(Cc4ccccn4)CC3)nc21 [Compound I-117, 1-methyl-6-[4-(2-pyridylmethyl)-1-piperidyl]-5H-pyrazolo[3 4-d]pyrimidin-4-one] and Cn1ncc2c(=O)[nH]c(N3CCN(CC4CCCCC4)CC3)nc21 [Compound I-110, 6-[4-(cyclohexylmethyl)piperazin-1-yl]-1-methyl-5H-pyrazolo[3 4-d]pyrimidin-4-one] are within 1.5-fold of each other in IC50: 112 nM for the first, 80.9 nM for the second.

Compared with Cn1ncc2c(=O)[nH]c(N3CCC(c4ccccn4)CC3)nc21 [Compound I-111, 1-methyl-6-[4-(2-pyridyl)-1-piperidyl]-5H-pyrazolo[3 4-d]pyrimidin-4-one], Cn1ccc(C2(C)CCN(c3nc4c(cnn4C)c(=O)[nH]3)CC2)n1 [Compound I-90, 1-methyl-6-[4-methyl-4-(1-methylpyrazol-3-yl)-1-piperidyl]-5H-pyrazolo[3 4-d]pyrimidin-4-one] is 3.6-fold lower in IC50: 83.8 nM for the first, 23.6 nM for the second.

Compared with O=c1[nH]c(N2CCN(c3c(F)cccc3F)CC2)nc2[nH]ncc12 [Compound I-80, 6-[4-(2 6-difluorophenyl)piperazin-1-yl]-1 5-dihydropyrazolo[3 4-d]pyrimidin-4-one], CC(O)Cn1ccc(C2(C)CCN(c3nc4c(cnn4C)c(=O)[nH]3)CC2)n1 (stereo not drawn) [Compound I-99, 6-[4-[1-(2-hydroxypropyl)pyrazol-3-yl]-4-methyl-1-piperidyl]-1-methyl-5H-pyrazolo[3 4-d]pyrimidin-4-one] is 3-fold higher in IC50: 14 nM for the first, 41.9 nM for the second. The first is the more potent here.

First: Cn1ncc2c(=O)[nH]c(-c3ccc(S(C)(=O)=O)cn3)nc21 [Compound I-139, 1-methyl-6-(5-methylsulfonyl-2-pyridyl)-5H-pyrazolo[3 4-d]pyrimidin-4-one]
Second: Cn1ncc2c(=O)[nH]c(N3CCN(c4c(F)cc(O)cc4F)CC3)nc21 [Compound I-73, 6-[4-(2 6-difluoro-4-hydroxy-phenyl)piperazin-1-yl]-1-methyl-5H-pyrazolo[3 4-d]pyrimidin-4-one]
The IC50 of the first is 62-fold higher: 547 nM for the first, 8.8 nM for the second. The second is the more potent here.

Cn1ncc2c(=O)[nH]c(N3CCC(C)(c4ccn(CCO)n4)CC3)nc21 [Compound I-89, 6-[4-[1-(2-hydroxyethyl)pyrazol-3-yl]-4-methyl-1-piperidyl]-1-methyl-5H-pyrazolo[3 4-d]pyrimidin-4-one] and “6-[4-(2-fluorophenyl)-1- piperidyl]-1-methyl-5H- pyrazolo[3 4-d]pyrimidin- 4-one [Compound I-88]” are within 1.5-fold of each other in IC50: 21.8 nM for the first, 19.3 nM for the second.

Cn1cc(CN2CCN(c3nc4c(cnn4C)c(=O)[nH]3)CC2)cn1 [Compound I-134, 1-methyl-6-[4-[(1-methylpyrazol-4-yl)methyl]piperazin-1-yl]-5H-pyrazolo[3 4-d]pyrimidin-4-one] and Cn1ncc2c(=O)[nH]c(N3CCC(C(=O)N4CCCC4)CC3)nc21 [Compound I-129, 1-methyl-6-[4-(pyrrolidine-1-carbonyl)-1-piperidyl)-5H-pyrazolo[3 4-d]pyrimidin-4-one] are within 1.5-fold of each other in IC50: 342 nM for the first, 274 nM for the second.

Work on CCn1ccc(C2(C)CCN(c3nc4c(cnn4C)c(=O)[nH]3)CC2)n1 [Compound I-92, 6-[4-(1-ethylpyrazol-3-yl)-4-methyl-1-piperidyl]-1-methyl-5H-pyrazolo[3 4-d]pyrimidin-4-one] yielded an IC50 of 24.5 nM.
